pIC50: −log10 of the molar value.
System: 958667-338-R-J2-PDC tumor spheroids viability
Assay: Anticancer human tumor 958667-338-R-J2-PDC patient-derived colon adenocarcinoma cell line growth inhibition [PI3K]
Conditions: spheroids with HUVEC and MSC; for pIC50: curve of first compound; for viability, T/C: stronger effect = lower value
Summary of the method: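 Agents were dosed from a top concentration near clinical Cmax (otherwise 10 microM) in half-log decrements, alone or combined with PI3K inhibitors. The spheroids contain tumor cells plus endothelial (HUVEC) and MSC stroma; viability is measured.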

[1] = second compound 0.0316 µM, first compound 0.0316 µM
[2] = second compound 0.0316 µM, first compound 0.1 µM
[3] = second compound 0.0316 µM, first compound 0.316 µM
[4] = second compound 0.0316 µM, first compound 1 µM
[5] = second compound 0.0316 µM, first compound 3.16 µM
[6] = second compound 0.0316 µM, first compound 10 µM
[7] = second compound 0.1 µM, first compound 0.0316 µM
[8] = second compound 0.1 µM, first compound 0.1 µM
[9] = second compound 0.1 µM, first compound 0.316 µM
[10] = second compound 0.1 µM, first compound 1 µM
[11] = second compound 0.1 µM, first compound 3.16 µM
[12] = second compound 0.1 µM, first compound 10 µM
[13] = second compound 0.316 µM, first compound 0.0316 µM
[14] = second compound 0.316 µM, first compound 0.1 µM
[15] = second compound 0.316 µM, first compound 0.316 µM
[16] = second compound 0.316 µM, first compound 1 µM
[17] = second compound 0.316 µM, first compound 3.16 µM
[18] = second compound 0.316 µM, first compound 10 µM
[19] = second compound 1 µM, first compound 0.0316 µM
[20] = second compound 1 µM, first compound 0.1 µM
[21] = second compound 1 µM, first compound 0.316 µM
[22] = second compound 1 µM, first compound 1 µM
[23] = second compound 1 µM, first compound 3.16 µM
[24] = second compound 1 µM, first compound 10 µM
[25] = second compound 0.00316 µM, first compound 0.0316 µM
[26] = second compound 0.00316 µM, first compound 0.1 µM
[27] = second compound 0.00316 µM, first compound 0.316 µM
[28] = second compound 0.00316 µM, first compound 1 µM
[29] = second compound 0.01 µM, first compound 0.0316 µM
[30] = second compound 0.01 µM, first compound 0.1 µM
[31] = second compound 0.01 µM, first compound 0.316 µM
[32] = second compound 0.01 µM, first compound 1 µM
[33] = second compound 0.00316 µM, first compound 3.16 µM
[34] = second compound 0.00316 µM, first compound 10 µM
[35] = second compound 0.01 µM, first compound 3.16 µM
[36] = second compound 0.01 µM, first compound 10 µM
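Note: spheroids exposed to compounds for seven days before readout.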

For `C[C@@H](NC(=O)c1ncnc(N)c1Cl)c1ncc(C(=O)Nc2cc(C(F)(F)F)c(Cl)cn2)s1` + Cc1nc(NC(=O)N2CCCC2C(N)=O)sc1-c1ccnc(C(C)(C)C(F)(F)F)c1, the pIC50 (second compound 0.0316 µM) was < 5.00, the pIC50 (second compound 0.1 µM) was < 5.00 and the pIC50 (second compound 0.316 µM) was < 5.00. For the same molecule, the pIC50 (second compound 1 µM) was < 5.00, the pIC50 (second compound 3.16 µM) was < 5.00 and the pIC50 (second compound 10 µM) was 5.48. It also gave a viability, T/C [1] of 97.2%, a viability, T/C [2] of 121% and a viability, T/C [3] of 115%. The viability, T/C [4] was 88.6%, the viability, T/C [5] was 87.8% and the viability, T/C [6] was 89.2%. For the same molecule, the viability, T/C [7] was 119%, the viability, T/C [8] was 126% and the viability, T/C [9] was 113%. The viability, T/C [10] was 108%, the viability, T/C [11] was 107% and the viability, T/C [12] was 94.9%. The viability, T/C [13] was 101%, the viability, T/C [14] was 85% and the viability, T/C [15] was 106%. It also gave a viability, T/C [16] of 111%, a viability, T/C [17] of 94.7% and a viability, T/C [18] of 90.2%. The viability, T/C [19] was 87%, the viability, T/C [20] was 95.8% and the viability, T/C [21] was 116%. The viability, T/C [22] was 94.9%, the viability, T/C [23] was 81.6% and the viability, T/C [24] was 75.7%. The viability, T/C (second compound 3.16 µM, first compound 0.0316 µM) was 77.9%, the viability, T/C (second compound 3.16 µM, first compound 0.1 µM) was 86.9% and the viability, T/C (second compound 3.16 µM, first compound 0.316 µM) was 82.8%. For the same molecule, the viability, T/C (second compound 3.16 µM, first compound 1 µM) was 90.4%, the viability, T/C (second compound 3.16 µM, first compound 3.16 µM) was 89.8% and the viability, T/C (second compound 3.16 µM, first compound 10 µM) was 57.9%. For the same molecule, the viability, T/C (second compound 10 µM, first compound 0.0316 µM) was 79.4%, the viability, T/C (second compound 10 µM, first compound 0.1 µM) was 82.5% and the viability, T/C (second compound 10 µM, first compound 0.316 µM) was 76.6%. The viability, T/C (second compound 10 µM, first compound 1 µM) was 71.3%, the viability, T/C (second compound 10 µM, first compound 3.16 µM) was 50.7% and the viability, T/C (second compound 10 µM, first compound 10 µM) was 28.2%.
In the case of `CCN1CCN(Cc2ccc(Nc3ncc(F)c(-c4cc(F)c5nc(C)n(C(C)C)c5c4)n3)nc2)CC1` + COc1c(OCCCN2CCOCC2)ccc2c3n(c(=NC(=O)c4cnc(N)nc4)nc12)CCN3, the pIC50 (second compound 0.00316 µM) was < 6.00, the pIC50 (second compound 0.01 µM) was < 6.00 and the pIC50 (second compound 0.0316 µM) was 6.46. The pIC50 (second compound 0.1 µM) was 8.33, the pIC50 (second compound 0.316 µM) was > 8.50 and the pIC50 (second compound 1 µM) was > 8.50. It also gave a viability, T/C (second compound 0.00316 µM, first compound 0.00316 µM) of 100%, a viability, T/C (second compound 0.00316 µM, first compound 0.01 µM) of 106% and a viability, T/C [25] of 82.9%. For the same molecule, the viability, T/C [26] was 67.2%, the viability, T/C [27] was 68.3% and the viability, T/C [28] was 64.3%. For the same molecule, the viability, T/C (second compound 0.01 µM, first compound 0.00316 µM) was 69.7%, the viability, T/C (second compound 0.01 µM, first compound 0.01 µM) was 87.8% and the viability, T/C [29] was 87.8%. The viability, T/C [30] was 65.5%, the viability, T/C [31] was 57.4% and the viability, T/C [32] was 51.5%. For the same molecule, the viability, T/C (second compound 0.0316 µM, first compound 0.00316 µM) was 67.5%, the viability, T/C (second compound 0.0316 µM, first compound 0.01 µM) was 61.2% and the viability, T/C [1] was 58.6%. The viability, T/C [2] was 57.3%, the viability, T/C [3] was 48.4% and the viability, T/C [4] was 46.1%. For the same molecule, the viability, T/C (second compound 0.1 µM, first compound 0.00316 µM) was 53.9%, the viability, T/C (second compound 0.1 µM, first compound 0.01 µM) was 41.4% and the viability, T/C [7] was 40.1%. For the same molecule, the viability, T/C [8] was 39%, the viability, T/C [9] was 33.6% and the viability, T/C [10] was 32.1%. For the same molecule, the viability, T/C (second compound 0.316 µM, first compound 0.00316 µM) was 34.4%, the viability, T/C (second compound 0.316 µM, first compound 0.01 µM) was 33.4% and the viability, T/C [13] was 33.8%. It also gave a viability, T/C [14] of 22.3%, a viability, T/C [15] of 22.2% and a viability, T/C [16] of 25.3%. It also gave a viability, T/C (second compound 1 µM, first compound 0.00316 µM) of 16.9%, a viability, T/C (second compound 1 µM, first compound 0.01 µM) of 14.7% and a viability, T/C [19] of 16.5%. It also gave a viability, T/C [20] of 14.3%, a viability, T/C [21] of 16.6% and a viability, T/C [22] of 18.1%.
In the case of `Cn1nccc1Nc1nccc(-c2ccn(C(CO)c3ccc(Cl)c(F)c3)c(=O)c2)n1` (stereo not drawn) + CC(Nc1ccc2c(c1)OCCn1cc(N3C(=O)OCC3C(F)F)nc1-2)C(N)=O, the pIC50 (second compound 0.00316 µM) was < 5.00, the pIC50 (second compound 0.01 µM) was 5.00 and the pIC50 (second compound 0.0316 µM) was < 5.00. The pIC50 (second compound 0.1 µM) was 5.18, the pIC50 (second compound 0.316 µM) was 5.68 and the pIC50 (second compound 1 µM) was 5.67. The viability, T/C [25] was 91.7%, the viability, T/C [26] was 81.7% and the viability, T/C [27] was 112%. For the same molecule, the viability, T/C [28] was 104%, the viability, T/C [33] was 78.7% and the viability, T/C [34] was 69.7%. It also gave a viability, T/C [29] of 108%, a viability, T/C [30] of 104% and a viability, T/C [31] of 105%. For the same molecule, the viability, T/C [32] was 102%, the viability, T/C [35] was 75.8% and the viability, T/C [36] was 49.9%. It also gave a viability, T/C [1] of 101%, a viability, T/C [2] of 86.4% and a viability, T/C [3] of 92.4%. For the same molecule, the viability, T/C [4] was 104%, the viability, T/C [5] was 75.7% and the viability, T/C [6] was 74.3%. For the same molecule, the viability, T/C [7] was 102%, the viability, T/C [8] was 77.5% and the viability, T/C [9] was 102%. It also gave a viability, T/C [10] of 90.1%, a viability, T/C [11] of 87.4% and a viability, T/C [12] of 28.6%. The viability, T/C [13] was 81.5%, the viability, T/C [14] was 88.9% and the viability, T/C [15] was 86%. It also gave a viability, T/C [16] of 64.6%, a viability, T/C [17] of 41.9% and a viability, T/C [18] of 16.9%. It also gave a viability, T/C [19] of 67%, a viability, T/C [20] of 64% and a viability, T/C [21] of 70.6%. For the same molecule, the viability, T/C [22] was 53.6%, the viability, T/C [23] was 47.6% and the viability, T/C [24] was 6.4%.
In the case of `CNC(=O)c1ccc(N2C(=S)N(c3ccc(C#N)c(C(F)(F)F)c3)C(=O)C2(C)C)cc1F` + CC(Nc1ccc2c(c1)OCCn1cc(N3C(=O)OCC3C(F)F)nc1-2)C(N)=O, the pIC50 (second compound 0.00316 µM) was < 5.00, the pIC50 (second compound 0.01 µM) was < 5.00 and the pIC50 (second compound 0.0316 µM) was < 5.00. For the same molecule, the pIC50 (second compound 0.1 µM) was < 5.00, the pIC50 (second compound 0.316 µM) was < 5.00 and the pIC50 (second compound 1 µM) was < 5.00. It also gave a viability, T/C [25] of 96.3%, a viability, T/C [26] of 103% and a viability, T/C [27] of 93.4%. The viability, T/C [28] was 84.3%, the viability, T/C [33] was 97.1% and the viability, T/C [34] was 102%. The viability, T/C [29] was 115%, the viability, T/C [30] was 102% and the viability, T/C [31] was 80.6%. For the same molecule, the viability, T/C [32] was 97.6%, the viability, T/C [35] was 89.9% and the viability, T/C [36] was 95.7%. For the same molecule, the viability, T/C [1] was 104%, the viability, T/C [2] was 98.1% and the viability, T/C [3] was 93.6%. It also gave a viability, T/C [4] of 107%, a viability, T/C [5] of 104% and a viability, T/C [6] of 94.6%. For the same molecule, the viability, T/C [7] was 84.5%, the viability, T/C [8] was 57.5% and the viability, T/C [9] was 90%. It also gave a viability, T/C [10] of 79.6%, a viability, T/C [11] of 85.1% and a viability, T/C [12] of 83.5%. For the same molecule, the viability, T/C [13] was 75.3%, the viability, T/C [14] was 73.5% and the viability, T/C [15] was 73.9%. The viability, T/C [16] was 72.5%, the viability, T/C [17] was 63% and the viability, T/C [18] was 68.4%. For the same molecule, the viability, T/C [19] was 67%, the viability, T/C [20] was 64.3% and the viability, T/C [21] was 64.2%. It also gave a viability, T/C [22] of 62%, a viability, T/C [23] of 69.4% and a viability, T/C [24] of 50.6%.

Source: PubChem BioAssay AID1963963 (Molecular Pharmacology Branch, DTP, NCI, 2024)
